According to ChEMBL document CHEMBL1201862, “PubChem BioAssay data set” (2004):
Active and inactive are the calls of the source.

Assays:
[1] = target: T1, RNA-binding protein pos-1 (Caenorhabditis elegans, UniProt G5EF15); assay: inhibitors of POS-1/mex-3 RNA binding, dose response, biochemical, fluorescence polarization (AID 1964);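 note: purified POS-1 fused to maltose binding protein made in E. coli; potency of compounds blocking POS-1 binding to fluorescent RNA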
T1 sequence (G5EF15 whole entry): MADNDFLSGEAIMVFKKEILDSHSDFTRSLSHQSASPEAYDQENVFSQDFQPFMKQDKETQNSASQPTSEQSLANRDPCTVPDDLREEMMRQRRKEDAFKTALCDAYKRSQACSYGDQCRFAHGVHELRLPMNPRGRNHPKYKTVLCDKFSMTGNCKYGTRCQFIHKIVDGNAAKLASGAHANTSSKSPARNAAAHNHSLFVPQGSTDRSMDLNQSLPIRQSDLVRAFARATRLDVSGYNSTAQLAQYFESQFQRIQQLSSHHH

[2] = target: T2, Zinc finger protein mex-5 (Caenorhabditis elegans, UniProt Q9XUB2); assay: MEX-5/TCR-2 RNA interaction inhibitors, dose response, biochemical, C. elegans, fluorescence polarization (AID 1960)
T2 sequence (Q9XUB2 whole entry): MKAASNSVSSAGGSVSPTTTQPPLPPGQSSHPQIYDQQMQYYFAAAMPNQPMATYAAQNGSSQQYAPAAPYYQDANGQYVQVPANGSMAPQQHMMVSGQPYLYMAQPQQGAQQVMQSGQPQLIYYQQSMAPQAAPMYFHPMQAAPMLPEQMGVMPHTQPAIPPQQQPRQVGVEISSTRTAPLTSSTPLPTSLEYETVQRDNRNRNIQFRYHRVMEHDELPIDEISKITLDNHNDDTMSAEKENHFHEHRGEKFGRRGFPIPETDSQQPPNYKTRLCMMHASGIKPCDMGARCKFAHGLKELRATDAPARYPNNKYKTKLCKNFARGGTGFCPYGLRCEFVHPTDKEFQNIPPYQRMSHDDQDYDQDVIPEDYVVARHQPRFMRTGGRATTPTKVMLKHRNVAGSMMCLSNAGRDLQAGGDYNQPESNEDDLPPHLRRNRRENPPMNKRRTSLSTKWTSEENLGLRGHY

[3] = target: Peroxisome proliferator-activated receptor gamma/Nuclear receptor corepressor 2 (Homo sapiens, UniProt P37231+Q9Y618); assay: Counterscreen for NR2E3 inverse agonists: TR-FRET-based biochemical high throughput dose response assay to identify inverse agonists of the interaction between peroxisome proliferator-activated receptor gamma (PPARg) and nuclear receptor co-repressor 2 (NCOR2).; assay type: functional
[4] = target: Photoreceptor-specific nuclear receptor (Homo sapiens, UniProt Q9Y5X4); assay: NR2E3 inverse agonists, dose response, biochemical, TR-FRET (AID 463256); assay type: functional
[5] = target: Dual specificity tyrosine-phosphorylation-regulated kinase 1A (Rattus norvegicus, UniProt Q63470); assay type: biochemical, Homo sapiens
[6] = target: Peroxisome proliferator-activated receptor gamma/Nuclear receptor coactivator 2 (Homo sapiens, UniProt P37231); assay type: functional;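 note: agonist potency for raising coactivator recruitment to the receptor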
[7] = target: Peroxisome proliferator-activated receptor gamma/Nuclear receptor coactivator 1 (Homo sapiens, UniProt P37231); assay type: functional;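 note: agonist potency as compounds enhance coactivator SRC-1 recruitment to PPARgamma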
[8] = target: Peroxisome proliferator-activated receptor gamma/Nuclear receptor coactivator 3 (Homo sapiens, UniProt P37231); assay type: functional;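 note: agonist potency for raising coactivator recruitment to the receptor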
[9] = target: Mothers against decapentaplegic homolog 3 (Homo sapiens, UniProt P84022); assay: SMAD3 transcription factor inhibitors, dose response (AID 715); assay type: functional
[10] = target: 5-hydroxytryptamine receptor 1E (Homo sapiens, UniProt P28566); assay: Counterscreen assay for S1P3 antagonists: Dose response cell-based high throughput screening assay to identify antagonists of the 5-Hydroxytryptamine Receptor Subtype 1E (5HT1E). [Related pubchem assays: 1429, 485 ]; assay type: functional
[11] = target: Sphingosine 1-phosphate receptor 3 (Homo sapiens, UniProt Q99500); assay: Dose response cell-based high throughput screening assay for antagonists of the Sphingosine 1-Phosphate Receptor 3 (S1P3). [Related pubchem assays: 1429, 485 ]; assay type: functional
[12] = target: Epstein-Barr nuclear antigen 1 (Epstein-Barr virus (strain B95-8) (HHV-4) (Human herpesvirus 4), UniProt P03211); assay: EBNA-1 inhibitors, dose response, biochemical, fluorescence polarization, 1536-well (AID 2381); set-up: species or system human gammaherpesvirus 4;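 note: fluorescence polarization of a Cy5 DNA probe bound by EBNA-1 protein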
[13] = target: Lytic switch protein BZLF1 (Epstein-Barr virus (strain B95-8) (HHV-4) (Human herpesvirus 4), UniProt P03206); assay: EBV ZTA inhibitors, dose response, counter-screen for EBNA-1 inhibitor project, biochemical, fluorescence polarization, Epstein-Barr virus, 1536-well (AID 2377); set-up: species or system human gammaherpesvirus 4;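 note: fluorescence polarization of Cy5-labelled ZRE DNA probe bound by purified Zta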
Vero = assay: host cell cytotoxicity of antiviral hits, dose response, cytotoxicity control for West Nile virus antiviral project, secondary assay (AID 1650); assay type: functional; settings: Chlorocebus sabaeus
NS3 = NS3 (Hepatitis C virus, UniProt A3EZJ3); assay: PubChem AID 2173; set-up: species or system Hepacivirus hominis
Bcl-2-related protein A1 [14] = target: T3, Bcl-2-related protein A1 (Mus musculus, UniProt Q07440); assay: Bfl-1 inhibitors blocking BH3 peptide binding, confirmation, biochemical, TR-FRET, mouse Bfl-1 (AID 621);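 note: TR-FRET binding of GST-Bfl-1 to FITC-labelled Bid peptide via terbium antibody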
T3 sequence (Q07440 whole entry): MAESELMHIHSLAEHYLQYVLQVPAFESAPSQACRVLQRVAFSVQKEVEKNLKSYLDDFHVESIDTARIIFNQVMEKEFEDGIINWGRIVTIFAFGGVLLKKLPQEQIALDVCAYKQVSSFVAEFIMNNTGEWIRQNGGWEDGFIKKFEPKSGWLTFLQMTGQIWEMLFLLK

Bcl-2-related protein A1 [15] = target: T3, Bcl-2-related protein A1; assay: Bfl-1 binding inhibitors, SAR follow-up, biochemical, fluorescence polarization (AID 1070)

Mothers against decapentaplegic homolog 3, sequence (P84022 whole entry): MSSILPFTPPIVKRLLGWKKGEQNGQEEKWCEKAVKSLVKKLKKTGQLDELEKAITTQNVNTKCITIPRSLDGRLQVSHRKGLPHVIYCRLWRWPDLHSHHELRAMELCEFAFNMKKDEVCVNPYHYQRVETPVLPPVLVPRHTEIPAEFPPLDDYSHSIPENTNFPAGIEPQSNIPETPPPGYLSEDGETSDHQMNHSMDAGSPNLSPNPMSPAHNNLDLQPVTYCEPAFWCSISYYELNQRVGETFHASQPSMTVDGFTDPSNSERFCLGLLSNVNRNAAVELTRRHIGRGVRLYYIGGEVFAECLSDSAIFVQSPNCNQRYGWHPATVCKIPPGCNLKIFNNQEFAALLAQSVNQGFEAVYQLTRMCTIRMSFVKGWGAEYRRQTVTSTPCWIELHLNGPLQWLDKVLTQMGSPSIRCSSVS
Epstein-Barr nuclear antigen 1, sequence (P03211 whole entry): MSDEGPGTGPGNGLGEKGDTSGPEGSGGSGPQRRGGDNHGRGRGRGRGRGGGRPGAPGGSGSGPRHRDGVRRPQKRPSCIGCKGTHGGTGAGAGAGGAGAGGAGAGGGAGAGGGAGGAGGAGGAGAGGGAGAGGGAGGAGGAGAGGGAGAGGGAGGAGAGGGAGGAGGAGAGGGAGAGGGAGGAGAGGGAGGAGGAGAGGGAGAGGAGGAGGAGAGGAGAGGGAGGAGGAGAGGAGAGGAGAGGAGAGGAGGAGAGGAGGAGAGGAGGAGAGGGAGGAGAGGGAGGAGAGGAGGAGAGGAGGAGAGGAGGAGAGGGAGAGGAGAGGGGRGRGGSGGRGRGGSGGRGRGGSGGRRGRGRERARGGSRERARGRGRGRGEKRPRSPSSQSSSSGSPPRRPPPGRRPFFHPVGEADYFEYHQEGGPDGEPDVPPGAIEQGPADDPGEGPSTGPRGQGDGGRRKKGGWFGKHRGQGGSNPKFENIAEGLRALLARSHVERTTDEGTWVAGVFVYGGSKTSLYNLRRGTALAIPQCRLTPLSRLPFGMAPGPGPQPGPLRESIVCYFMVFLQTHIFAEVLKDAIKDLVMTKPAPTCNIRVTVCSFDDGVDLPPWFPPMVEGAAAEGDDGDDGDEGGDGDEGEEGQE
Sphingosine 1-phosphate receptor 3, sequence (Q99500 whole entry): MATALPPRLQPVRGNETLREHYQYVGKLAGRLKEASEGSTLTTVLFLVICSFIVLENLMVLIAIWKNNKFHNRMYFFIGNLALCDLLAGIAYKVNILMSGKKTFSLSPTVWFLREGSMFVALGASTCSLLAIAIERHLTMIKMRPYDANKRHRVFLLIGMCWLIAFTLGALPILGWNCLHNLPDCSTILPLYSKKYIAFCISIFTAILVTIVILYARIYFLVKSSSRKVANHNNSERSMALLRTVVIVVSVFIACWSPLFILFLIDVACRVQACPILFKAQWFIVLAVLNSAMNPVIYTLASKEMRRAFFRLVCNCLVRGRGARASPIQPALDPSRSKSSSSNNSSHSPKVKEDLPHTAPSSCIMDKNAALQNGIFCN
Peroxisome proliferator-activated receptor gamma/Nuclear receptor coactivator 2, sequence (P37231 whole entry): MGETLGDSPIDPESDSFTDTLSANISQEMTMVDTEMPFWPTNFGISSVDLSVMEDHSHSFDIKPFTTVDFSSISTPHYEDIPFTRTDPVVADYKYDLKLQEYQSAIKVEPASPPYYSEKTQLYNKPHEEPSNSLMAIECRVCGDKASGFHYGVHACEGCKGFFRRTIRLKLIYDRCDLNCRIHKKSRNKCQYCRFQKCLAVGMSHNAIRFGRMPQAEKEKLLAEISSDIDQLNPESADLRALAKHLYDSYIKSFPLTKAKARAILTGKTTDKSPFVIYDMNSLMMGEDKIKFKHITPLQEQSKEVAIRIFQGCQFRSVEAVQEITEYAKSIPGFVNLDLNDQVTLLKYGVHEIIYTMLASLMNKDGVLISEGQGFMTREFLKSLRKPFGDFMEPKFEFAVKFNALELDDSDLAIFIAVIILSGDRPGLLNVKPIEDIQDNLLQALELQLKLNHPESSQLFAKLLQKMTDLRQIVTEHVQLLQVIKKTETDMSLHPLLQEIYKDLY
Peroxisome proliferator-activated receptor gamma/Nuclear receptor coactivator 2, sequence (Q15596 whole entry, further chain): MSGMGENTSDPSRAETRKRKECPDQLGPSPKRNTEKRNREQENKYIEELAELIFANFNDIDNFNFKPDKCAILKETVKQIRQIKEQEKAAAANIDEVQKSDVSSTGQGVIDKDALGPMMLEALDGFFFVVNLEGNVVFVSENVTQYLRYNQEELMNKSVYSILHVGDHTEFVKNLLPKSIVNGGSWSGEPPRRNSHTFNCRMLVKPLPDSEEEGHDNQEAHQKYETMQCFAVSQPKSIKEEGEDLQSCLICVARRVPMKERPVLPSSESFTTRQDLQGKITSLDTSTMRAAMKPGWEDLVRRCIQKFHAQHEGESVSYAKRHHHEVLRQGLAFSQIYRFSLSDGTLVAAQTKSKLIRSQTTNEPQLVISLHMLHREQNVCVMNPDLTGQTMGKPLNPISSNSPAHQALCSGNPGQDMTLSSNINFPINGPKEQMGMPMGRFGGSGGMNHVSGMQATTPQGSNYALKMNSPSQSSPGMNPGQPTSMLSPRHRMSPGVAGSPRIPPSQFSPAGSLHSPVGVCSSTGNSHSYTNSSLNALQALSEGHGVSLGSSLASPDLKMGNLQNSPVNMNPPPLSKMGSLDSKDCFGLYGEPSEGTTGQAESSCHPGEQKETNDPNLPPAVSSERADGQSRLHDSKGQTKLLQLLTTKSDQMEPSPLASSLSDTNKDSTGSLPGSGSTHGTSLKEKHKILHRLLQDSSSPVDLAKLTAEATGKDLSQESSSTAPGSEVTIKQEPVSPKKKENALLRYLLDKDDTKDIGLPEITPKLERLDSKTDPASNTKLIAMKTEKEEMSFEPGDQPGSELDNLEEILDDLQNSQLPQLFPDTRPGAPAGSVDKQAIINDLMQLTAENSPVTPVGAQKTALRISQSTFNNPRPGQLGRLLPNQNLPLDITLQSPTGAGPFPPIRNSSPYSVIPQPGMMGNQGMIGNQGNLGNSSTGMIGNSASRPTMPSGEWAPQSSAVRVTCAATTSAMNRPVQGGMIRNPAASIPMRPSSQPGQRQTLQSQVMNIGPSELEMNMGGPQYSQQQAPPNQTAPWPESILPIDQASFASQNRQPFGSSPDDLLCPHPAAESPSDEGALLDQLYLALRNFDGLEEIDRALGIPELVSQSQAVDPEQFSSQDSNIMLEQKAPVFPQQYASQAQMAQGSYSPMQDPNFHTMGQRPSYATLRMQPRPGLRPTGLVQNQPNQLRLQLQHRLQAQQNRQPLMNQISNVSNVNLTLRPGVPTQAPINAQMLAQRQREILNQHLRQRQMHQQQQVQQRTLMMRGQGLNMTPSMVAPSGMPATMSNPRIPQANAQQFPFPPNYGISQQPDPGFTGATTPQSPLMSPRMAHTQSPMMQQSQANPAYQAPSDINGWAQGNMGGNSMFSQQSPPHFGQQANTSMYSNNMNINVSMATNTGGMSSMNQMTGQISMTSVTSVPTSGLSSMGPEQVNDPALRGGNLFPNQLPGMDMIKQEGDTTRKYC
5-hydroxytryptamine receptor 1E, sequence (P28566 whole entry): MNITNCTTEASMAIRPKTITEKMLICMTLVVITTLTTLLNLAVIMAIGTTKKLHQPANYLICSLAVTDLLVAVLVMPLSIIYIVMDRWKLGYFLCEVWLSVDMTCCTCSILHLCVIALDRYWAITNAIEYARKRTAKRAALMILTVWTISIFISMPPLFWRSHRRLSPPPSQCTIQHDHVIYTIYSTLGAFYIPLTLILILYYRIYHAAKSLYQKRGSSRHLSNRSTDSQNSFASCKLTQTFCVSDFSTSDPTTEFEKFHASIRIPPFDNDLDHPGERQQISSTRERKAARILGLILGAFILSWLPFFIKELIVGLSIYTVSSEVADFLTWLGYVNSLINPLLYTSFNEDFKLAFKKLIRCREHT
NS3, sequence (A3EZJ3 whole entry): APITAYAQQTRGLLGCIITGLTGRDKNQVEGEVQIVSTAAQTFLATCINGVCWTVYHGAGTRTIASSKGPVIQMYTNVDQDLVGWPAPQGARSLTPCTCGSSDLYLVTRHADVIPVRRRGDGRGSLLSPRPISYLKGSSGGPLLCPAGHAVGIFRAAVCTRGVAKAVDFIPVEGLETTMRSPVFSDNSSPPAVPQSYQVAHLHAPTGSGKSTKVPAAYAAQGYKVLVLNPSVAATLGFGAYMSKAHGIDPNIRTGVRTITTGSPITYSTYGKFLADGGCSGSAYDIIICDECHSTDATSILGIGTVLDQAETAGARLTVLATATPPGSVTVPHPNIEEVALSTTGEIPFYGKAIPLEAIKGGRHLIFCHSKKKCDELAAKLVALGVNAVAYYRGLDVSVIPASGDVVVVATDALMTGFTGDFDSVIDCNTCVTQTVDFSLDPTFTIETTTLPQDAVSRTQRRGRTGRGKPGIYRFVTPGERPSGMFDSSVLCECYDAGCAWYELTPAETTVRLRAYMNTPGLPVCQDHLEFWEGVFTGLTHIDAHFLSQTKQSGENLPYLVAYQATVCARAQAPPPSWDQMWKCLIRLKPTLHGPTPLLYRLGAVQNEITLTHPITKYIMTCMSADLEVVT
Photoreceptor-specific nuclear receptor, sequence (Q9Y5X4 whole entry): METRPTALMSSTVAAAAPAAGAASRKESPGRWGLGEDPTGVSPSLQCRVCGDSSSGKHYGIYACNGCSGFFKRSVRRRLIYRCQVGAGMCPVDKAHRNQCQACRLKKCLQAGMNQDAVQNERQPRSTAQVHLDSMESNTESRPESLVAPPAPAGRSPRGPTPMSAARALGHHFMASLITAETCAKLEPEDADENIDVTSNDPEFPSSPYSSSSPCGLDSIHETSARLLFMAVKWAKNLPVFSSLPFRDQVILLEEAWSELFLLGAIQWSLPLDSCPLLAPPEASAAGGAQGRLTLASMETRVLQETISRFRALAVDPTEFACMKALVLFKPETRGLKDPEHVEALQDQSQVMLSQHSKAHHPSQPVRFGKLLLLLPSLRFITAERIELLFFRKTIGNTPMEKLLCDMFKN

Compound: N=C1NC(=O)/C(=C/c2ccc(-c3ccc(S(N)(=O)=O)cc3)o2)S1
- EC50 [1]: 31.9 µM (active)
- EC50 [2]: 15 µM (active)
- IC50 [3]: > 39.8 µM (not active)
- IC50 [4]: 14.2 µM (not active)
- AC50 [5]: 1.97 µM (active)

Compound: CCCCOC(=O)CSc1nc(N)c(C#N)c(-c2ccc(OCC)cc2)c1C#N
- EC50 [6]: 9.42 µM (active)
- EC50 [7]: 11.2 µM (not active)
- EC50 [8]: > 79.4 µM (not active)
- IC50 [9]: 11 µM (active)

Compound: O=C(CSc1nnc(-c2cccnc2)n1Cc1ccco1)N1c2ccccc2Sc2ccccc21
- IC50 [10]: > 50 µM (not active)
- IC50 [11]: > 50 µM (not active)

Compound: COc1cc(NC(=O)c2ccc(Br)cc2)c(OC)cc1NC(=O)c1ccccc1
- IC50 [12]: 15.4 µM (not active)
- IC50 [13]: > 111 µM (not active)

Compound: CC(C(=O)N(C)C1CCS(=O)(=O)C1)N1C(=O)/C(=C/c2cccs2)SC1=S (configuration not stated)
- CC50 (Vero): 32.1 µM (active)

Compound: Cc1cc(O)c(C(=O)/C=C/c2c(F)c(F)c(F)c(F)c2F)c(=O)o1
- IC50 (NS3): 8.85 µM (active)

Compound: Clc1ccc(-n2nnc(-c3cnc4ccccc4c3)n2)cc1Cl
- IC50 (Bcl-2-related protein A1 [14]): > 100 µM (not active)
- IC50 (Bcl-2-related protein A1 [15]): > 100 µM (not active)
